What was measured:
Type in all cases: biochemical
[1] = target: T1, Jak3 (Homo sapiens, UniProt P52333); assay: AlphaScreen kinase assay, Jak3; conditions: read-out: IC50, activity toward kinase Jak3
T1 sequence (P52333 1-1124): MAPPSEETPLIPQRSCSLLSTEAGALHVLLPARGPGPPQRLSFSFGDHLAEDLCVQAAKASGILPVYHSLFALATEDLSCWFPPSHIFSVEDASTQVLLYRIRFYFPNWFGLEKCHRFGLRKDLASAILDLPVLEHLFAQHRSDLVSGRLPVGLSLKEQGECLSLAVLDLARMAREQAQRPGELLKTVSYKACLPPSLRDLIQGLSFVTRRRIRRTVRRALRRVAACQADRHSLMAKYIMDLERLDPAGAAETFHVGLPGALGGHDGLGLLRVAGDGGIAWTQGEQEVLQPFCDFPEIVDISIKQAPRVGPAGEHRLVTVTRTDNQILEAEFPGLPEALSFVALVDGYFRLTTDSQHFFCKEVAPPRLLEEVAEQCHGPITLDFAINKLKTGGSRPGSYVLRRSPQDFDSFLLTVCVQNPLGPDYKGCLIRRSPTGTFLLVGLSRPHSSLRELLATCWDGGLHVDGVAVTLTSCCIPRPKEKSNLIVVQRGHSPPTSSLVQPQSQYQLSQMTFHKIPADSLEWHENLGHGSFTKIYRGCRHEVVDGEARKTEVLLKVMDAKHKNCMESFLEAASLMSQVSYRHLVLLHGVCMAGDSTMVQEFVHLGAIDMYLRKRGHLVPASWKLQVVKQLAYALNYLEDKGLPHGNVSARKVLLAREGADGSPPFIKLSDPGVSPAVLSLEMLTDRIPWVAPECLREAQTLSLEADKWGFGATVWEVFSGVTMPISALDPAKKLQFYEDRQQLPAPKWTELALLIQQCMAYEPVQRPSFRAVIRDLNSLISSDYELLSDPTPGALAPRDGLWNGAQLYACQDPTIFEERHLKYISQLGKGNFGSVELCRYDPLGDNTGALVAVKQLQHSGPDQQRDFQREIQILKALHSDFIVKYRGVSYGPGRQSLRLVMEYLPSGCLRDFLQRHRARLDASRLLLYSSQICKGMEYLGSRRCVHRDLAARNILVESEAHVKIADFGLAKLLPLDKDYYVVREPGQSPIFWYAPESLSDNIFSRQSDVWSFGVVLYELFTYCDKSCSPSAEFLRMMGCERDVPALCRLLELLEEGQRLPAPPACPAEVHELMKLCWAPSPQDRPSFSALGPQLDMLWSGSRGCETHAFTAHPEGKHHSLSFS
How it was run: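 Emission from acceptor beads reports phosphorylated biotin-peptide bridging antibody-coated acceptor and streptavidin donor beads; loss of signal reflects kinase inhibition. Eight-point, threefold dilution series prepared from 20 mM DMSO stocks.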

[2] = target: T2, Ret (Homo sapiens, UniProt P07949); assay: AlphaScreen kinase assay, Ret; conditions: read-out: IC50, activity toward kinase Ret
T2 construct: P1378.pET-SF BI-PTP RET H661-R1012 HIS; made in house
T2 sequence (P07949 with tags, fused parts or gaps): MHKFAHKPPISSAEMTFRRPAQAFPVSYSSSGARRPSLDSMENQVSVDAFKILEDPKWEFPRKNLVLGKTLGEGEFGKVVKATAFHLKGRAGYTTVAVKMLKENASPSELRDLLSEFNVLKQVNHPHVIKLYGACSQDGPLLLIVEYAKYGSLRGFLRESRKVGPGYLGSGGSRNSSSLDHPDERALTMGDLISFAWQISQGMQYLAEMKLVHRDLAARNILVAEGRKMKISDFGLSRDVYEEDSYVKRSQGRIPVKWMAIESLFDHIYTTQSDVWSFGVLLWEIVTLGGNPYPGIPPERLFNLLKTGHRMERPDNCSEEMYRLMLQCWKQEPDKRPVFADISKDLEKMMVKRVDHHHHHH

[3] = target: T3, Btk (Homo sapiens, UniProt Q06187); assay: Z'-Lyte FRET kinase assay (Invitrogen), Btk; conditions: read-out: IC50, activity toward kinase Btk
T3 construct: purchased Invitrogen (assay run by Invitrogen)
T3 sequence (Q06187 whole entry): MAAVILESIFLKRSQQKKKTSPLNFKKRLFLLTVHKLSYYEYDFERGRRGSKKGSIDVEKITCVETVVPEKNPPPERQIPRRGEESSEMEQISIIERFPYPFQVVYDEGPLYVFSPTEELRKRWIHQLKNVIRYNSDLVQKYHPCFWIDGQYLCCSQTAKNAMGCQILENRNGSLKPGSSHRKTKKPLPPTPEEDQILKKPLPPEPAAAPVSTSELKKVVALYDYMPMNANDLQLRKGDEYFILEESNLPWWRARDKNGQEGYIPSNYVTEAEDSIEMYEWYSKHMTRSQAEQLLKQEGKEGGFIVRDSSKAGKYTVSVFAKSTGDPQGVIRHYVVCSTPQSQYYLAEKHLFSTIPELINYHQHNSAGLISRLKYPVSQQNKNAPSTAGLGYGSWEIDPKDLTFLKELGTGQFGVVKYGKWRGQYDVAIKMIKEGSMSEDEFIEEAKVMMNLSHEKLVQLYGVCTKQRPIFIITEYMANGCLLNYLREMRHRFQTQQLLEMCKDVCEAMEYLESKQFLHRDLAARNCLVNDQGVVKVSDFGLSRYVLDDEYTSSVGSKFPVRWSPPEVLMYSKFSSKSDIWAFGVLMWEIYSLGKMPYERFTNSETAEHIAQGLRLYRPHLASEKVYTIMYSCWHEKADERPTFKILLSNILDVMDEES

[4] = target: T4, Jnk3 (Homo sapiens, UniProt P53779); assay: AlphaScreen kinase assay, Jnk3; conditions: read-out: IC50, activity toward kinase Jnk3
T4 construct: purchased Upstate Biotechnology
T4 sequence (P53779 whole entry): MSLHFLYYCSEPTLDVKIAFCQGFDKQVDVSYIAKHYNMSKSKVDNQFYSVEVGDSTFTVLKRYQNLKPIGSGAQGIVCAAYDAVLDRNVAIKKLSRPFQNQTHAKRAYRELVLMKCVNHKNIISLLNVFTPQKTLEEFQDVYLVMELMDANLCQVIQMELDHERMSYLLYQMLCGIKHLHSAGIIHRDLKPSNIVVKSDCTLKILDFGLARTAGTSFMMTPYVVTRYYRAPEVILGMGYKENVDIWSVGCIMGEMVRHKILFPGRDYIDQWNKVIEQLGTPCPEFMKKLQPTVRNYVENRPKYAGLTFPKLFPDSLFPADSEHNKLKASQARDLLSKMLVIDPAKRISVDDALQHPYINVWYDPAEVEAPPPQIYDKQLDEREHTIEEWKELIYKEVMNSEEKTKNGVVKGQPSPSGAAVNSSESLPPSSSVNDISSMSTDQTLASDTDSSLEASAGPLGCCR

[5] = target: T5, Flt1 (Homo sapiens, UniProt P17948); assay: AlphaScreen kinase assay, Flt1; conditions: read-out: IC50, activity toward kinase Flt1
T5 construct: P1826.pETN6 BI-PTP FLT1 M799-D1165-X WT; His6 (N); made in house; host or cells: E. coli (PTP1B co-expressed)
T5 sequence (P17948 with tags, fused parts or gaps): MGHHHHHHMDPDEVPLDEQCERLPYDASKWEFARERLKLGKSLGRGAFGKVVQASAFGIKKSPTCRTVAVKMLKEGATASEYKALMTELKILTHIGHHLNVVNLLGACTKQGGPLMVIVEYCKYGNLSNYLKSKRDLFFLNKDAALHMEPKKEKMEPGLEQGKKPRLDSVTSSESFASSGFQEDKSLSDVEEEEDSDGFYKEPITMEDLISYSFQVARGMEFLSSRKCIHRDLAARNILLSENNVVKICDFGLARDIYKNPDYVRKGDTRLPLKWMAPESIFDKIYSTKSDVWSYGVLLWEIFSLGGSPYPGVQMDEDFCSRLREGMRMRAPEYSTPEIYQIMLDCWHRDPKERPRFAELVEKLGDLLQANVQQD

[6] = target: T6, Kdr (Homo sapiens, UniProt P35968); assay: Z'-Lyte FRET kinase assay (Invitrogen), Kdr; conditions: read-out: IC50, activity toward kinase Kdr
T6 construct: purchased Invitrogen (assay run by Invitrogen)
T6 sequence (P35968 20-1356): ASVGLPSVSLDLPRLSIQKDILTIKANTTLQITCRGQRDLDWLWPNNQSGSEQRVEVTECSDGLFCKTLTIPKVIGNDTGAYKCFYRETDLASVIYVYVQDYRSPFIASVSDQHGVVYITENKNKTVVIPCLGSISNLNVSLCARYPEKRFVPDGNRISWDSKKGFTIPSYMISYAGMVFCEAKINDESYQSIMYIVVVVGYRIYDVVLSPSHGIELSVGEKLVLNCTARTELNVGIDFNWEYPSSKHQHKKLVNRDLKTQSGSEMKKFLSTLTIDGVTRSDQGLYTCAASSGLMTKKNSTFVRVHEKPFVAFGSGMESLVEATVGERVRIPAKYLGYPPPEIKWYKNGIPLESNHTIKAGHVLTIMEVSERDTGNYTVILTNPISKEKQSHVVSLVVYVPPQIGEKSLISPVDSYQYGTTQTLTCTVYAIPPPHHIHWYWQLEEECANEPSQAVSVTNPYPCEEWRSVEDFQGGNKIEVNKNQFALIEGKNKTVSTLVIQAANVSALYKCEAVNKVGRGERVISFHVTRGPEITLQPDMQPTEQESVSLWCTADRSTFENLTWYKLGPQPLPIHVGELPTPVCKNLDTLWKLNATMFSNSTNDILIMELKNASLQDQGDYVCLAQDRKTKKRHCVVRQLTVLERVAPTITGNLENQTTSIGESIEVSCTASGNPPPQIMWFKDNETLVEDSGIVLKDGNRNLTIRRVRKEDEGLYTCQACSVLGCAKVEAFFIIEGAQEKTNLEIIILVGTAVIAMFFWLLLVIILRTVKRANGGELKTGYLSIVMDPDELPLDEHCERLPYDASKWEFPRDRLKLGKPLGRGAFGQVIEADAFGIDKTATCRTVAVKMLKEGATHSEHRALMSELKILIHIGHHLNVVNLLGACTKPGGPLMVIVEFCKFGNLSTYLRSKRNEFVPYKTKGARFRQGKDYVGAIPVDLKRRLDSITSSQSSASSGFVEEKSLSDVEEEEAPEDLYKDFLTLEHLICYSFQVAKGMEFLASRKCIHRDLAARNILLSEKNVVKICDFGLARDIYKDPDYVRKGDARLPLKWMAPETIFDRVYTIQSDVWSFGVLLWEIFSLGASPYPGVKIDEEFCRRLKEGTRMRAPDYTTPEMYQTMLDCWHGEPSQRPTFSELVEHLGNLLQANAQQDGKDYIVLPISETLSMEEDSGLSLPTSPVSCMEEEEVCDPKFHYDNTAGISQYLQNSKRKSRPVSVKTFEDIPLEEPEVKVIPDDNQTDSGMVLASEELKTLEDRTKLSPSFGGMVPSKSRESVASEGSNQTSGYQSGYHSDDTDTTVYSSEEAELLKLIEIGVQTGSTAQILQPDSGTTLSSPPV

[7] = target: T7, Src (Homo sapiens, UniProt P12931); assay: AlphaScreen kinase assay, Src; conditions: read-out: IC50, activity toward kinase Src
T7 construct: P1144. pET-N6 BI-PTP SRC V86-L536-X; made in house
T7 sequence (P12931 with tags, fused parts or gaps): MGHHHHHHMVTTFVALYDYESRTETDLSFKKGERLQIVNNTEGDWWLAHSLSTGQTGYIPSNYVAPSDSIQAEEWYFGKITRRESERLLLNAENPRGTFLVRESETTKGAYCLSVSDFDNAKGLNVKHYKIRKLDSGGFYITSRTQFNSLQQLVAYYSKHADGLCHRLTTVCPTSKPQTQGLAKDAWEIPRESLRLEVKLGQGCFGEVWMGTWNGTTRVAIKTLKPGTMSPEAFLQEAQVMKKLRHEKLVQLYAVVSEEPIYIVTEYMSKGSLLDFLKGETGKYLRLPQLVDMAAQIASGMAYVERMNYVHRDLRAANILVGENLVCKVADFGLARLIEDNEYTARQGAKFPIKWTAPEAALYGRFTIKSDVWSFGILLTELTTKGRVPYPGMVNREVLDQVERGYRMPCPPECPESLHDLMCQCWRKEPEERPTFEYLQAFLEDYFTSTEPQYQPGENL

Measured: IC50

O=C(c1ccc(O)cc1)c1c[nH]c2ncc(-c3cccs3)cc12 [Compound P-0024, (4-Hydroxy-phenyl)-(5-thiophen-2-yl-1H-pyrrolo[2,3-b]pyridin-3-yl)-methanone]
not listed: [7]
≤ 10 µM: all other assays above

CS(=O)(=O)c1cccc(-c2cnc3[nH]cc(C(O)c4c(F)ccc(F)c4F)c3c2)c1 (centres unmarked) [Compound P-0020]
not listed: [4] | [7]
≤ 10 µM: all other assays above

Oc1ccc(F)c(C(O)c2c[nH]c3ncc(-c4cccnc4)cc23)c1F (centres unmarked) [Compound P-0009, 2,4-difluoro-3-[hydroxy-(5-pyridin-3-yl-1H-pyrrolo[2,3-b]pyridin-3-yl)-methyl]-phenol]
≤ 10 µM: all assays above

O=C(c1cccc(O)c1)c1c[nH]c2ncc(Br)cc12 [Compound P-0019]
not listed: [4] | [7]
≤ 10 µM: all other assays above

NC(=O)c1ccc(-c2ccnc3[nH]cc(C(=O)c4cc(F)ccc4F)c23)cc1 [Compound P-0013]
not listed: [4] | [7]
≤ 10 µM: all other assays above

CS(=O)(=O)c1cccc(-c2ccnc3[nH]cc(C(=O)c4cc(F)ccc4F)c23)c1 [Compound P-0171]
≤ 10 µM: [7] | [1] | [2] | [3]
